Data published in patent US20210315921A1, “Compounds and Methods for Modifying iAge” (Edifice Health, Inc,, priority 2020, published 2021).

How the values were obtained:
estrogen levels = settings: while raising testosterone levels; cited from earlier work
Mouse thoracic aortas = test: Acetylcholine relaxation of mouse thoracic aortic rings after exposure to MIG (wire myograph); settings: mouse thoracic aortic sections, precontracted with U46619, increasing concentrations of recombinant mouse MIG
Protocol: Mouse thoracic aortas were carefully dissected, and vessels were cut into small rings and mounted on an isometric wire myograph chambers (Danish Myo Technology) and subjected to a normalization protocol. Following normalization, the vessels were incubated with either PBS or different concentrations of recombinant mouse MIG (R&D systems, catalog number 492-MM). A concentration-dependent contraction curve was created by accumulative application of the prostaglandin agonist U46619. Subsequently, concentration-dependent relaxation curves of Acetylcholine were conducted on these vessels and percent relaxation calculated for each dose.

Row | Molecule | reduction of estrogen levels (estrogen levels) | effect on vasorelaxation to Acetylcholine (Mouse thoracic aortas)
1 | N#Cc1ccc(C(c2ccc(C#N)cc2)n2cncn2)cc1 [Letrozole] | 98% | –
2 | MIG: recombinant mouse MIG (R&D systems, catalog number 492-MM), monokine induced by gamma interferon (protein, UniProt P18340 22-126, looked up) C-X-C motif chemokine 9: TLVIRNARCSCISTSRGTIHYKSLKDLKQFAPSPNCNKTEIIATLKNGDQTCLDPDSANVKKLMKEWEKKISQKKKQKRGKKHQKNMKNRKPKTPQSRRRSRKTT | – | dose-dependent effect on vasorelaxation
